In PubChem BioAssay (NCI) one finds GI50 and TGI data, which are given here for eight compounds.

Structures are written as SMILES.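 Protocol summary: plate cells (96-well), add compound at 5 concentrations, incubate 48 h, interpolate endpoints linearly. GI50 is the concentration that inhibits growth by half. The concentration for full growth arrest is given as TGI.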

Test systems include HCC-2998 colon; NCI-H460 lung; HL-60(TB) leukemia; NCI-H522 lung; MDA-MB-435; COLO 205 colon; SK-MEL-5 melanoma; T-47D breast; NCI-H226 lung; K-562 leukemia.
Assay in all cases: inhibition of tumour cell growth, NCI panel, 48 h

For the compound `CCn1cc(/C=C2\Oc3cc(OCC#N)ccc3C2=O)c2cc(OC)ccc21`, the GI50 in the experiment on HCC-2998 colon is 1.86 µM; with NCI-H460 lung it was 0.347 µM; with HL-60(TB) leukemia, 0.0872 µM; in the experiment with NCI-H522 lung, 2.46 µM; in the experiment on MDA-MB-435, 0.0764 µM; with COLO 205 colon it was 0.348 µM. In addition, the GI50 in the experiment with SK-MEL-5 melanoma is 0.204 µM; in the experiment with T-47D breast it was 0.961 µM; in the experiment with NCI-H226 lung, 6.65 µM; in the experiment on K-562 leukemia, 0.0888 µM. For the same compound, the TGI is > 100 µM in the experiment with HCC-2998 colon; > 100 µM in the experiment on NCI-H460 lung; 0.903 µM in the experiment with HL-60(TB) leukemia; 28.5 µM in the experiment with NCI-H522 lung; 0.263 µM with MDA-MB-435; 4.12 µM with COLO 205 colon. The TGI is 4.17 µM in the experiment with SK-MEL-5 melanoma, > 100 µM with T-47D breast, > 44.3 µM in the experiment with NCI-H226 lung and > 100 µM in the experiment with K-562 leukemia.

On to `FC(F)(F)c1ccc(-c2nn3ncccc3c2-c2ccnc(Nc3ccc4c(c3)OCCO4)n2)cc1`, for which the GI50 in the experiment on HCC-2998 colon was 6.56 µM; in the experiment on NCI-H460 lung, 11.9 µM; in the experiment on HL-60(TB) leukemia, 7.16 µM; in the experiment on NCI-H522 lung it was 8.79 µM; in the experiment on MDA-MB-435, 10.7 µM; with COLO 205 colon, 16.6 µM. In addition, the GI50 is 6.42 µM with SK-MEL-5 melanoma, 4.78 µM in the experiment on T-47D breast, > 20.5 µM in the experiment with NCI-H226 lung and 8.79 µM with K-562 leukemia. Further, the TGI in the experiment on HCC-2998 colon was > 25 µM; in the experiment with NCI-H460 lung, > 25 µM; in the experiment with HL-60(TB) leukemia, > 21.8 µM; in the experiment with NCI-H522 lung it was > 25 µM; with MDA-MB-435, > 25 µM; in the experiment on COLO 205 colon it was > 25 µM. For the same compound, the TGI in the experiment with SK-MEL-5 melanoma, with T-47D breast, in the experiment on NCI-H226 lung and in the experiment with K-562 leukemia was > 25 µM throughout.

Regarding `ClCc1cccc(Cn2cnc3c(Cl)nc(Cl)nc32)c1`, the GI50 in the experiment on HCC-2998 colon is 1.61 µM; in the experiment with NCI-H460 lung, 2.36 µM; in the experiment with HL-60(TB) leukemia, 0.642 µM; in the experiment on NCI-H522 lung, 2.72 µM; in the experiment with MDA-MB-435 it was 1.69 µM; in the experiment on COLO 205 colon, 2.22 µM. In addition, the GI50 was 1.59 µM in the experiment on SK-MEL-5 melanoma, 1.97 µM in the experiment on T-47D breast, 3.24 µM with NCI-H226 lung and 1.6 µM with K-562 leukemia. The TGI with HCC-2998 colon is 3.15 µM; with NCI-H460 lung it was 6.25 µM; in the experiment on HL-60(TB) leukemia, > 100 µM; in the experiment with NCI-H522 lung, 5.32 µM; in the experiment on MDA-MB-435, 3.26 µM; with COLO 205 colon, 5.39 µM. In addition, the figures for the TGI in the experiment with SK-MEL-5 melanoma, with T-47D breast and with K-562 leukemia were 3.05 µM, 4.5 µM and > 100 µM, respectively.

For the compound `C=C(CN1CCc2c([nH]c3ccccc23)C1)c1ccc(C(=O)Nc2ccccc2N)cc1`, the GI50 in the experiment on HCC-2998 colon is 0.731 µM; in the experiment on NCI-H460 lung, 3.57 µM; in the experiment with HL-60(TB) leukemia it was 0.67 µM; in the experiment with NCI-H522 lung, 4.13 µM; with MDA-MB-435, 8.47 µM; with COLO 205 colon, 6.35 µM. For the same compound, the GI50 with SK-MEL-5 melanoma was 2.61 µM; in the experiment with T-47D breast it was 8.5 µM; with NCI-H226 lung it was 1.32 µM; in the experiment on K-562 leukemia, 1.01 µM. For the same compound, the TGI in the experiment on HCC-2998 colon amounted to 1.91 µM; in the experiment on NCI-H460 lung it was 21 µM; in the experiment on HL-60(TB) leukemia it was 7.25 µM; in the experiment with NCI-H522 lung, 11.5 µM; in the experiment with MDA-MB-435, 17.7 µM; with COLO 205 colon, 20.9 µM. For the same compound, the TGI came out at 6.88 µM in the experiment on SK-MEL-5 melanoma, 50 µM in the experiment with T-47D breast, 10.1 µM in the experiment with NCI-H226 lung and 17 µM with K-562 leukemia.

Regarding `N=c1ccc2nc3ccc(N)cc3sc-2c1`, the GI50 in the experiment with HCC-2998 colon was 6.82 µM; with NCI-H460 lung, 5.23 µM; in the experiment on HL-60(TB) leukemia, 1.9 µM; in the experiment with NCI-H522 lung it was 2.24 µM; in the experiment with MDA-MB-435 it was 2.37 µM; with COLO 205 colon, 2.25 µM. In addition, the GI50 in the experiment with SK-MEL-5 melanoma is 1.7 µM; in the experiment on T-47D breast, 4.05 µM; with NCI-H226 lung it was 12.4 µM; with K-562 leukemia, 4.47 µM. Moreover, the TGI is 97.7 µM in the experiment on HCC-2998 colon; > 100 µM with NCI-H460 lung; 20.8 µM in the experiment with HL-60(TB) leukemia; 7 µM in the experiment on NCI-H522 lung; 5.21 µM in the experiment on MDA-MB-435; 12.5 µM with COLO 205 colon. Also, the TGI came out at 3.53 µM in the experiment on SK-MEL-5 melanoma, 18.8 µM in the experiment on T-47D breast, 28.2 µM with NCI-H226 lung and 74.9 µM with K-562 leukemia.

Regarding `CCSc1ccc([C@@H]2[C@@H](O)C(=O)N2c2cc(OC)c(OC)c(OC)c2)cc1`, the GI50 is 0.0489 µM in the experiment on HCC-2998 colon; < 0.0138 µM with NCI-H460 lung; < 0.0134 µM with HL-60(TB) leukemia; < 0.01 µM in the experiment with NCI-H522 lung; < 0.01 µM with MDA-MB-435; 0.0163 µM with COLO 205 colon. Besides, the GI50 with SK-MEL-5 melanoma was < 0.0118 µM; in the experiment on T-47D breast, 14.2 µM; with NCI-H226 lung it was 0.521 µM; with K-562 leukemia, < 0.01 µM. Moreover, the TGI was 17.4 µM in the experiment on HCC-2998 colon; 11.9 µM with NCI-H460 lung; 0.0367 µM in the experiment on HL-60(TB) leukemia; < 0.0119 µM in the experiment on NCI-H522 lung; < 0.0112 µM with MDA-MB-435; 0.072 µM in the experiment with COLO 205 colon. The TGI in the experiment on SK-MEL-5 melanoma is 0.433 µM; with T-47D breast, 45.8 µM; in the experiment with NCI-H226 lung, 33.7 µM; with K-562 leukemia, > 69.9 µM.

In the case of `O=C(Nc1cccc2[nH]c(C(F)(F)F)nc12)c1cc(Cl)ccc1Cl`, the GI50 with HCC-2998 colon was 3.87 µM; in the experiment on NCI-H460 lung it was 3.09 µM; in the experiment with HL-60(TB) leukemia it was 2.87 µM; in the experiment with NCI-H522 lung, 2.27 µM; in the experiment on MDA-MB-435 it was 2.96 µM; in the experiment on COLO 205 colon it was 1.84 µM. Further, the GI50 in the experiment on SK-MEL-5 melanoma was 1.77 µM; in the experiment with T-47D breast, 1.84 µM; in the experiment on NCI-H226 lung, 3.39 µM; in the experiment with K-562 leukemia it was 3.71 µM. Also, the TGI in the experiment on HCC-2998 colon is 15.8 µM; in the experiment on NCI-H460 lung, > 100 µM; in the experiment on HL-60(TB) leukemia, 7.53 µM; in the experiment with NCI-H522 lung, 6.2 µM; with MDA-MB-435 it was 12.4 µM; in the experiment on COLO 205 colon, 3.62 µM. For the same compound, the TGI with SK-MEL-5 melanoma was 3.45 µM; in the experiment on T-47D breast, 6.43 µM; in the experiment with NCI-H226 lung, 25.5 µM; with K-562 leukemia, > 100 µM.

With `CCCN(CCC)c1ccc(C=O)c(Cl)c1`, the GI50 in the experiment on HCC-2998 colon is 19.4 µM; in the experiment on NCI-H460 lung it was 2.19 µM; with HL-60(TB) leukemia it was 27.8 µM; in the experiment with NCI-H522 lung, 25.2 µM; in the experiment on MDA-MB-435, 25.2 µM; with COLO 205 colon, 4.2 µM. Also, the GI50 with SK-MEL-5 melanoma is 14.8 µM; with T-47D breast, 0.375 µM; in the experiment with NCI-H226 lung it was 0.152 µM; in the experiment on K-562 leukemia it was 26.4 µM. For the same compound, the TGI with HCC-2998 colon is > 100 µM; in the experiment with NCI-H460 lung it was 39.3 µM; in the experiment with HL-60(TB) leukemia, 76.1 µM; in the experiment on NCI-H522 lung, 82.2 µM; in the experiment with MDA-MB-435 it was > 87.8 µM; in the experiment with COLO 205 colon, 17 µM. Besides, the TGI with SK-MEL-5 melanoma is 28.6 µM; with T-47D breast, 5.1 µM; in the experiment on NCI-H226 lung, 0.322 µM; in the experiment with K-562 leukemia, > 100 µM.
